Assays:
[1] = system: sclerostin loop2‐ApoER2 interaction; assay: BLI blockade of ApoER2 - sclerostin loop2 binding by pretreatment with ApoER2‐Pep; details: His‐ApoER2 on HIS1K biosensors, sclerostin loop2 pretreated with ApoER2‐Pep, Figure 6F, listed as ApoER2‐LA7
Procedure: Biolayer interferometry (BLI) analysis was performed on the Biomolecular Interaction Analyzer (ForteBio, Octet RED96e). To determine the binding affinity between ApoER2 and sclerostin, the ApoER2 protein (R&D, 3520‐AR) was biotinylated using 10 mM EZ‐Link Sulfo‐NHS‐LC‐LC‐Biotin (Thermo Scientific, 21 343) in a molar ratio of 1:20 for 2 h at 4 °C. The Slide‐A‐Lyzer Dialysis Cassettes (Thermo Scientific, 66 382) were used for excess biotin removal.^[ [61] ^] […] (SA) tray biosensors (Sartorius, 18‐5019) were used to load biotin‐ApoER2 proteins. Biosensors were pre‐wet for 10 min using 200 µL PBS containing 0.02% Tween 20 (v/v) in a 96‐well plate. To determine the binding affinity between sclerostin loop2 and ApoER2‐LA7, anti‐penta‐HIS (HIS1K) biosensors (Sartorius, 18‐5102) were used to load His‐sclerostin loop2, the sclerostin loop2‐loaded biosensors were immersed in the ApoER2‐LA7 with different concentrations. […] Raw data were analyzed using Data Analysis Software (ForteBio, v8.1). All Kd values were calculated after deducting the non‐specific binding between the biosensors and the samples.^[ [62], [63] ^]
Target sequence in this assay (Q99P68 107-132 limits assumed): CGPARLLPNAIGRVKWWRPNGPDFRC

[2] = system: sclerostin‐knockout macrophages (RAW264.7); assay: Effect of ApoER2‐LA7 on LPS‐induced cytokine mRNA in sclerostin‐knockout macrophages (RAW264.7); assay type: cell-based, mouse; details: sclerostin‐knockout RAW264.7, after LPS induction, n = 3; Figure S7C
[3] = system: SOST^ki.ApoE^−/− mice; assay: Aortic aneurysm, atherosclerosis and inflammatory responses in SOST^ki.ApoE^−/− mice with AngII infusion; assay type: in vivo, mouse; details: 10 mg/kg/day subcutaneous, four weeks, versus veh and Rseq‐Pep groups, n = 12
Procedure: (§1) Aortic aneurysm (AA), atherosclerosis, and inflammatory responses were induced in ApoE^−/− mice with AngII infusion as previously described.^[ [15] ^] In brief, osmotic minipumps (Model 1004, ALZET, Durect Corporation) were implanted into the subcutaneous space along the dorsal midline under anaesthesia on the right flank via an incision in the scapular region to deliver 1000 ng/kg/min of AngII (A9525, Sigma‐Aldrich) or vehicle in 3‐month‐old mice for four weeks.^[ [68] ^]
For AA evaluation, the aortas were perfused via the left ventricle with ice‐cold EDTA buffer (1 mM) and saline immediately after sacrifice. The aortas were then isolated from the fat and connective tissues under a Zeiss Stemi 305 stereomicroscope and then fixed in 4% PFA. The aorta with or without aneurysm formation was defined according to Daugherty's modified classification.^[ [45] ^] The incidence of AA was determined as follows: mouse number with aortic aneurysm/group mice*100%. The maximum ex vivo diameters of the aortic arch and suprarenal aorta were determined by ImageJ software. For atherosclerosis assessment, atherosclerotic plaque was quantified by measuring the surface area of the Oil Red O‐positive lesions on en face preparation of aortic arches.^[ [14] ^] Briefly, aortic arches were cut longitudinally and immersed in Oil Red O dye solution, followed by being rinsed with 75% ethanol. The ratio of atherosclerotic plaque area to total aortic arch area was quantified by colorimetric analysis using Image J software.^[ [13] ^]
(§2) The serum levels of sclerostin were detected using the sclerostin ELISA kits (R&D, DSST00; Cloud‐Clone, SEC864Mu) in triplicate following the manufacturer's instructions.^[ [14] ^] The serum levels of pro‐inflammatory cytokine and chemokine were measured using TNF‐α ELISA kit (Thermo Fisher BMS607‐3) and MCP‐1 ELISA kit (Thermo Fisher, BMS6005) in triplicate following manufacturer's instructions.^[ [15], [45] ^] The serum levels of anti‐inflammatory cytokine were measured using IL‐10 ELISA kit (Jonlnbio JL20242‐96T) in triplicate following manufacturer's instructions.^[ [15], [45] ^]

[4] = system: sclerostin loop2‐ApoER2 interaction; assay: ApoER2‐Pep blockade of sclerostin effects in ApoER2 overexpressing, LPS‐induced RAW 264.7 macrophages; assay type: cell-based, mouse
Procedure: In ApoER2‐Pep‐mediated structure‐function studies in vitro, RAW 264.7 cells were divided into 4 groups (n = 3 per group), including (1) Control, (2) LPS, (3) Lrp8 + LPS + SOST, and (4) Lrp8 + LPS + SOST + ApoER2‐Pep. Cells in groups (3) and (4) were transfected with Lrp8 plasmids encoding ApoER2, while cells in groups (1) and (2) were kept untreated. 24 h later, cells in group (3) were treated with recombinant sclerostin (SOST, 1 µM), while cells in group (4) were treated with recombinant sclerostin (1 µM) and ApoER2‐Pep (2 µM) for 3 h. Then, cells in groups (2), (3), and (4) were treated with LPS (1 µg/mL) for 18 h. All groups of cells were collected for determining the mRNA expression levels of TNF‐α, MCP‐1, and IL‐10 by RT‐PCR. Cell mediums were collected for determining the protein expression/secretion levels of mouse TNF‐α, mouse MCP‐1, and mouse IL‐10 by ELISA.
Total RNA was extracted from cells following the protocols of Trizol reagent (Invitrogen, 15 596 026). Reverse‐transcription was performed to obtain cDNA using HiScript III RT SuperMix kit (Vazyme, R323), and RT‐PCR was accomplished using a HiScript III RT SuperMix kit (Vazyme, R323) in a QuantStudio 7 PRO System (Applied Biosystems). The relative gene expression levels were calculated using the 2^−ΔΔCt method with GAPDH as the reference gene.^[ [40] ^] The primers were as follows: mouse GAPDH (F: […], R: GGGGTCGTTGATGGCAAC), mouse NF‐κB (p65, F: […], R: […]), mouse TNF‐α (F: […], R: […]), mouse MCP‐1 (F: […], R: […]), mouse IL‐10 (F: […], R: […]), human GAPDH (F: […], R: […]), human TNF‐α (F: […], R: […]), human MCP‐1 (F: […], R: […]) and human IL‐10 (F: […], R: […]).

[5] = system: sost^−/−.ApoE^−/− mice; assay: Inflammatory responses in sost^−/−.ApoE^−/− mice with AngII infusion (absence of sclerostin); assay type: in vivo, mouse; details: 10 mg/kg, n = 6, Figure S12F
Procedure: as §1, §2
Figure S12. […] (A) Serum stability of the modified ApoER2-Pep. […] All tests were two-sided. n = 6 per group. Data were expressed as mean ± standard deviation.

[6] = LPS‐induced macrophages in vitro

## PCRENEFQCGDGTCVLAIKRCNQERDCPDGSDEAGCL [ApoER2‐Pep]
[1]
  Binding of ApoER2 to sclerostin loop2 after pretreatment with the peptide: blocked
[2]
  mRNA expression levels of TNF‐α, MCP‐1 and IL‐10, with versus without the peptide: no significant differences
[3]; ELISA
  Serum level of IL‐10: significantly lower
  Serum level of MCP‐1: significantly higher
  Serum level of TNF‐α: significantly higher
[3]
  AA incidence: significantly higher
  Maximum ex vivo diameters of aortic arches and suprarenal aortas: significantly higher
  Ratio of atherosclerotic plaque in aortic arches: significantly higher
[4]; ApoER2‐Pep 2 µM + sclerostin 1 µM for 3 h, LPS 1 µg/mL 18 h, ELISA, n = 3
  Effects of exogenous sclerostin on protein expression/secretion of TNF‐α, MCP‐1 and IL‐10 after pretreatment with the peptide: significantly attenuated
[4]; ApoER2‐Pep 2 µM + sclerostin 1 µM for 3 h, LPS 1 µg/mL 18 h, RT‐PCR, n = 3
  Effects of exogenous sclerostin on mRNA expression of TNF‐α, MCP‐1 and IL‐10 after pretreatment with the peptide: significantly attenuated
[4]; [6]
  Reversal of the promotive effect of sclerostin on IL‐10 mRNA expression: complete reversal
  Reversal of the suppressive effect of sclerostin on MCP‐1 mRNA expression: complete reversal
  Reversal of the suppressive effect of sclerostin on TNF‐α mRNA expression: partial reversal
[5]
  Effect on inflammatory responses (serum TNF‐α, MCP‐1, IL‐10) in the absence of sclerostin: no effect

— paper PMC12884772, “Macrophagic Sclerostin Loop2‐ApoER2 Interaction Required by Sclerostin for Cardiovascular Protective Action” (Advanced Science, 2025)
